Measured values taken from ChEMBL document CHEMBL1201862, “PubChem BioAssay data set” (2004).
Active and inactive are the calls of the source.

Assays:
HEK293 [1] = assay: cells; assay type: functional, cell-based; conditions: Homo sapiens
[2] = molecular target: Heat shock protein HSP 90-alpha (Homo sapiens, UniProt P07900); assay type: functional, organism-based
[3] = viability loss in THP-1 monocytes – THP-1 cells, cytotoxicity control for Vif-APOBEC3G degradation inhibitor project, dose response (AID 1117359); assay type: functional; conditions: THP-1
HEK293 [4] = assay: cells; conditions: Homo sapiens
[5] = molecular target: T1, Nucleotide-binding oligomerization domain-containing protein 1 (Homo sapiens, UniProt Q9Y239); assay: blockers of NOD1 pathway activity – revised, SAR follow-up (AID 2333); assay type: functional
T1 sequence (Q9Y239 whole entry): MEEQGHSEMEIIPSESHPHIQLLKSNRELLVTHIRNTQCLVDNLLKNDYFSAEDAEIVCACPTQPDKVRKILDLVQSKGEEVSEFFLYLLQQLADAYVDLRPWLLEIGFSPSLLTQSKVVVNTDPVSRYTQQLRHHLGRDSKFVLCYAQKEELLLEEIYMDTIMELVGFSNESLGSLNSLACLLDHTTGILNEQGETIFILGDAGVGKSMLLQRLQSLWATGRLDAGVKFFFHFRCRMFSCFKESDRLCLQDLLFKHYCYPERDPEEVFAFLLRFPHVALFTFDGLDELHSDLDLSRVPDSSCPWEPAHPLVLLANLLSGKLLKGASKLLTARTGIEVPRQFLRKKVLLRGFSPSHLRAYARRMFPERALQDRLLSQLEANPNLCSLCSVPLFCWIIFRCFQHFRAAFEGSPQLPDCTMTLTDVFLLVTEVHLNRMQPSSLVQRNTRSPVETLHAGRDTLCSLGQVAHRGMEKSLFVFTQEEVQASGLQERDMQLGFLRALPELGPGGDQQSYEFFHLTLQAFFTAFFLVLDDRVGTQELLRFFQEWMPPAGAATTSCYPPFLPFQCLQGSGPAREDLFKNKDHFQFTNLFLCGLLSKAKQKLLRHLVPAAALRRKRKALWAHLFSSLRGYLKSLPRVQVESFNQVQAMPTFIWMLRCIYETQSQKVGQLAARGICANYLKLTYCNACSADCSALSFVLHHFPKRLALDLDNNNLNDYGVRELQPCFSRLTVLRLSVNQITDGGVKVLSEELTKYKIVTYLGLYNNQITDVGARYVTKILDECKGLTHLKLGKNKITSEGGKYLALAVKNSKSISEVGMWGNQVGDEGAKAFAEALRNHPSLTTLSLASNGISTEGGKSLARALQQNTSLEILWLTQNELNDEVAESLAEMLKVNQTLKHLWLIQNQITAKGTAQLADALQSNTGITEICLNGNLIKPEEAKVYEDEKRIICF

Tumor necrosis factor = Tumor necrosis factor (Homo sapiens, UniProt P01375); assay: analog potency on TNFa NF-kB signaling – cell-based, revised, SAR follow-up (AID 2337); assay type: functional
Sequence of Tumor necrosis factor (P01375 whole entry, the tested form may be a part): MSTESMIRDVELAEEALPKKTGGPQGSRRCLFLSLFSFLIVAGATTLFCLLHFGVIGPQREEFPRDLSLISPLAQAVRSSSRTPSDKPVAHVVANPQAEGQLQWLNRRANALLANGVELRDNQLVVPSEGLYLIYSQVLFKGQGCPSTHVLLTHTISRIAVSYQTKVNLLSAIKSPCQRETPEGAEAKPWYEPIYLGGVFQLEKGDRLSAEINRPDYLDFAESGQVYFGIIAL

[6] = molecular target: T2, Runt-related transcription factor 1/Core-binding factor subunit beta (Homo sapiens, UniProt Q01196+Q13951); assay: Runt domain/CBFb-SMMHC interaction disruptors – biochemical, TR-FRET (AID 1438); assay type: protein assay
T2 sequence (Q01196 whole entry, the tested form may be a part): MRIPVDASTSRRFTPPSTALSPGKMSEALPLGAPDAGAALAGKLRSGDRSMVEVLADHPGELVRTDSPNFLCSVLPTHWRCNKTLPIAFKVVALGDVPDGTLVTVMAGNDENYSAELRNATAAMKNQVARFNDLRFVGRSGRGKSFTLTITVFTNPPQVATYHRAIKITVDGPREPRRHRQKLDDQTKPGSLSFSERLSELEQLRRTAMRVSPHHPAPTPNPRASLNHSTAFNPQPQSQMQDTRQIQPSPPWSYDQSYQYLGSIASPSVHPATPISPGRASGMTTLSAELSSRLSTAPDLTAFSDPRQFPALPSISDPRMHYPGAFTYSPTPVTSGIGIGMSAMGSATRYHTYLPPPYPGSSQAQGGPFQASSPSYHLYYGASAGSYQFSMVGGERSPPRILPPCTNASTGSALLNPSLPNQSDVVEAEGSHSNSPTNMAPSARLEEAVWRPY
T2 sequence (Q13951 whole entry, the tested form may be a part): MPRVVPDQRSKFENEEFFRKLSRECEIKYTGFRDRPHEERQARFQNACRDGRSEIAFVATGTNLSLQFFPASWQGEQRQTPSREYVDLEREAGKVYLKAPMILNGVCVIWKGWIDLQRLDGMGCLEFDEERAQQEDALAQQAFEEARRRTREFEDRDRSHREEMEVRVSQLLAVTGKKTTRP

[7] = molecular target: T3, Nucleotide-binding oligomerization domain-containing protein 2 (Homo sapiens, UniProt Q9HC29); assay: PubChem AID 2334; assay type: functional
T3 sequence (Q9HC29 whole entry, the tested form may be a part): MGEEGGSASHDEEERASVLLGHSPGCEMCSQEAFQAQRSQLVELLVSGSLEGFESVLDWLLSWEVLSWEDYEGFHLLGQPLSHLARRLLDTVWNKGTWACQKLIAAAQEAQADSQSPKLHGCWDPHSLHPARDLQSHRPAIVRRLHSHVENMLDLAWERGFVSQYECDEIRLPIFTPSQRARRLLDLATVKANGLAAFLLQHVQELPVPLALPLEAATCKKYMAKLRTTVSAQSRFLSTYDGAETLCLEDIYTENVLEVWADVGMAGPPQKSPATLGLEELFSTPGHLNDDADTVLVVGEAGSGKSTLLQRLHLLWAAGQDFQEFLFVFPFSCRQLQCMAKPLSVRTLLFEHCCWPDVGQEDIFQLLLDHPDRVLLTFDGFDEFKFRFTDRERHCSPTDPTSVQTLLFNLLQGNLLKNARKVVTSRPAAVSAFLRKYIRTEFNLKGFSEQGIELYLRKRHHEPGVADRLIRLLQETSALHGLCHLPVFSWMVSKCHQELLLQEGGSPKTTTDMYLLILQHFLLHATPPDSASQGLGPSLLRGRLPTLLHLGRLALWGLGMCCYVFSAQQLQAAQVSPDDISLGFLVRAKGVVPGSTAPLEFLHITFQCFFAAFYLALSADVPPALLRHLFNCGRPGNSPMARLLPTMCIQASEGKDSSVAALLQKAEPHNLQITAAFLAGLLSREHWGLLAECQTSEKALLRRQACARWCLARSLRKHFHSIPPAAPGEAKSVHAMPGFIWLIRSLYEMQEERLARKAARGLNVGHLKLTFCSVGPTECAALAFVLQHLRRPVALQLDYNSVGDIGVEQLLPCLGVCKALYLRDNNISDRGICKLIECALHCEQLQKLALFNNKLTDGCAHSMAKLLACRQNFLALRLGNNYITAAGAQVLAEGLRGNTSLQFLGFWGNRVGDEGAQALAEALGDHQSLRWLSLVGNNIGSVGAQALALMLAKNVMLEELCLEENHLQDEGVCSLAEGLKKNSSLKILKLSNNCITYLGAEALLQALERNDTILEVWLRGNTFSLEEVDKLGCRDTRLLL

[8] = molecular target: T3, Nucleotide-binding oligomerization domain-containing protein 2; assay: inhibition of NOD2-driven NF-kB reporter – cell-based, luminescence, uHTS, HEK293 (AID 1566); assay type: functional
Hexokinase HKDC1 = molecular target: T4, Hexokinase HKDC1 (Homo sapiens, UniProt Q2TB90); assay: inhibition of HKDC1 glucose phosphorylation – biochemical, W721R variant, dose response (AID 504729); assay type: functional
T4 sequence (Q2TB90 whole entry): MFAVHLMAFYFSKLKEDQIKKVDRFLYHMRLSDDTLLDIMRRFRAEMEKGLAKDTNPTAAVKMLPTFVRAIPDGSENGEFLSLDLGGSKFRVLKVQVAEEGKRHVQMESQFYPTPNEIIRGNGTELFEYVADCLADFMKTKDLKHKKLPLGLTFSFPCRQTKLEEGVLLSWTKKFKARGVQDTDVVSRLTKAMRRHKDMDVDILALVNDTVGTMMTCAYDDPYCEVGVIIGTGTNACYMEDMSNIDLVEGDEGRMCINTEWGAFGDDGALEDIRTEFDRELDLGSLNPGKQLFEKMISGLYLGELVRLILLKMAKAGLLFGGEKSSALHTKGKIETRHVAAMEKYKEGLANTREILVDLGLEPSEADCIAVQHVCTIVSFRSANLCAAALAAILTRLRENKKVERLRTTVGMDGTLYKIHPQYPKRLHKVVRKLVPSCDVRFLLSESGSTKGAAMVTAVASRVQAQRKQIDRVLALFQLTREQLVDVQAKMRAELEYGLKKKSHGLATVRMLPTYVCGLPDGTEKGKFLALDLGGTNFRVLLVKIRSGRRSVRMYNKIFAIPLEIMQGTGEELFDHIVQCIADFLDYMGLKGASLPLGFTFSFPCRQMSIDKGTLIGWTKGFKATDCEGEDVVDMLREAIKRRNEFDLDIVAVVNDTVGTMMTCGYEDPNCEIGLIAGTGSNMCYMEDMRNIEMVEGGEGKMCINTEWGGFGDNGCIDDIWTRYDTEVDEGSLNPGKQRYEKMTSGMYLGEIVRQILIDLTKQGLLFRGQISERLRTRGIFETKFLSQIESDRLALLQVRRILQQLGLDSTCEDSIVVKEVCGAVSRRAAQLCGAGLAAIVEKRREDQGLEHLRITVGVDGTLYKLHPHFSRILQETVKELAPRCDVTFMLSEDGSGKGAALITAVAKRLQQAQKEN

Beta-galactosidase = Beta-galactosidase (Escherichia coli, UniProt Q8VNN2); assay: detection-enzyme interference by beta-gal modulators – biochemical, E. coli enzyme, set 3, artefact control for CCR6 antagonist project, dose response (AID 504712); assay type: functional
Sequence of Beta-galactosidase (Q8VNN2 whole entry): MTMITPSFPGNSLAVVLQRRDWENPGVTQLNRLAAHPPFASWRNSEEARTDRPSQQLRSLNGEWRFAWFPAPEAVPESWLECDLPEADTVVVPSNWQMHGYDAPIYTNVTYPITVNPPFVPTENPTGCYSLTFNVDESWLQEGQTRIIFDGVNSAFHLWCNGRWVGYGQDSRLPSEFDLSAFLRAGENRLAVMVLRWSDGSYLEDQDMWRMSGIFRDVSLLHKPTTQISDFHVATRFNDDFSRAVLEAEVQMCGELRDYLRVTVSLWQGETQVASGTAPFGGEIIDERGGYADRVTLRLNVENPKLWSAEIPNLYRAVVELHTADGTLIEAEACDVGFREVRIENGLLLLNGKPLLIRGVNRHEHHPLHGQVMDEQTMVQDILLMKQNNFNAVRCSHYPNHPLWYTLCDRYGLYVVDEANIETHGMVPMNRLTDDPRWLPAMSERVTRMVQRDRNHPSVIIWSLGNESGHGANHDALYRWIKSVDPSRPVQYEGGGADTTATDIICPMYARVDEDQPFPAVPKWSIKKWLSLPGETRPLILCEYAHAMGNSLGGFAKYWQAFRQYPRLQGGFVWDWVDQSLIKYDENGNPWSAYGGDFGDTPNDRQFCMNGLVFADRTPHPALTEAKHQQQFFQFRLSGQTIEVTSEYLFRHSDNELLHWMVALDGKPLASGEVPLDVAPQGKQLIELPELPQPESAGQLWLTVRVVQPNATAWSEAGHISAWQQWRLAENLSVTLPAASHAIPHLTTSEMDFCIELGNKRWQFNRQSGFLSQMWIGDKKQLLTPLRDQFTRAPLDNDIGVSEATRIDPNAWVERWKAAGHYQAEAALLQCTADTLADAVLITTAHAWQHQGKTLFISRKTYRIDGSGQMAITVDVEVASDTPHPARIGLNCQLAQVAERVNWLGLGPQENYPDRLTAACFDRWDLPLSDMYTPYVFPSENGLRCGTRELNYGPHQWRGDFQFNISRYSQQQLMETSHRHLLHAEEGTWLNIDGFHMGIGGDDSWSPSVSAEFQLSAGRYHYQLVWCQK

HEK293 [9] = assay: inhibition of NOD1-driven NF-kB reporter – cell-based, luminescence, uHTS, primary screen (AID 1578); assay type: functional; conditions: Homo sapiens
HEK293 [10] = assay: cells; assay type: functional, cell-based; conditions: Homo sapiens; remark: listed apart in the source
[11] = molecular target: T2, Runt-related transcription factor 1/Core-binding factor subunit beta; assay: disruptors of Runt domain/CBFb-SMMHC interaction – biochemical, FRET, Cerulean-Runt, Venus-CBFb-SMMHC, uHTS, […] (AID 1434); assay type: protein assay
HEK293 [12] = assay: NOD2 signaling inhibitors in MDP-stimulated cells, cell-based, uHTS, luminescence (AID 2001); assay type: functional; conditions: Homo sapiens
[13] = molecular target: G-protein coupled receptor 35 (Homo sapiens, UniProt Q9HC97); assay: inhibition of zaprinast-stimulated GPR35 beta-arrestin translocation – imaging, U2OS, beta-arrestin-GFP, zaprinast agonist, primary screen (AID 2058); assay type: functional;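 further: antagonist potency meaning inhibition of agonist-induced arrestin redistribution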
Sequence of G-protein coupled receptor 35 (Q9HC97 whole entry): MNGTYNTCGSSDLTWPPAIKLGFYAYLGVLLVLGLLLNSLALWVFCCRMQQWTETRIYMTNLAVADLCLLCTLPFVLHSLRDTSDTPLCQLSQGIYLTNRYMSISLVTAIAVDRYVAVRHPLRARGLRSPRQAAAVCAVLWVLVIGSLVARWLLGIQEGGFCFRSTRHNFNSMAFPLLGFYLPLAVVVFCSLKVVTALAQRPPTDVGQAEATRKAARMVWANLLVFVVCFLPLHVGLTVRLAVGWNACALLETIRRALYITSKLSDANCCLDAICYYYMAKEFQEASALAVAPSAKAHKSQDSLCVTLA

HEK293 [14] = assay: cells; assay type: functional, cell-based; conditions: Homo sapiens; remark: listed apart in the source
Coagulation factor XII = Coagulation factor XII (Homo sapiens, UniProt P00748); assay: Factor XIIa Dose Response Confirmation from Single Well HTS. [Related pubchem assays (depositor defined):AID701]; assay type: functional
Sequence of Coagulation factor XII (P00748 20-372 limits assumed): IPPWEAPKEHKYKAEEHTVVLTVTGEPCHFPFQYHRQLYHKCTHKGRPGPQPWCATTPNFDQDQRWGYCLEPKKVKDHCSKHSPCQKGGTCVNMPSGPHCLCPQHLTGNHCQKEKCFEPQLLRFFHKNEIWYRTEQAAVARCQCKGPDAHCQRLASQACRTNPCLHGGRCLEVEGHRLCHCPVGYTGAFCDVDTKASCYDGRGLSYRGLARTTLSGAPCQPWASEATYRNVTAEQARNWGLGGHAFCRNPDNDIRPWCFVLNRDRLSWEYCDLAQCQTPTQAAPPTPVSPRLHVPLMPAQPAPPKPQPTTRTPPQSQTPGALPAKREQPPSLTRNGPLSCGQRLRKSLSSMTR
Sequence of Coagulation factor XII (P00748 373-615 limits assumed): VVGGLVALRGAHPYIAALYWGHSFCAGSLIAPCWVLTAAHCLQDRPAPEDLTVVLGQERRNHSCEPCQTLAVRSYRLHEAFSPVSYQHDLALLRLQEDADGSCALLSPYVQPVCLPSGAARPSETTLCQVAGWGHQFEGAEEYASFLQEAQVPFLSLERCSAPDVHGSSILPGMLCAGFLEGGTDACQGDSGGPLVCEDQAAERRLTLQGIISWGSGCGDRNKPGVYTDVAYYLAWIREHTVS

[15] = Luminescence Cell-Based Dose Confirmation HTS to Identify Inhibitors of 5'UTR Stem-Loop Driven Alpha-Synuclein mRNA Translation in H4 Neuroglioblastoma Cells. [Related pubchem assays: 1827 (Project Summary), 1813 (Primary HTS)]; assay type: functional
BJ [16] = assay: BJ-TERT fibroblast viability loss – cell-based, RAS-independent, luminescence, dose response (AID 1933); assay type: functional; conditions: Homo sapiens
[17] = Luminescence Cell-Based Dose Retest to Confirm Activators of 5'UTR Stem-Loop Driven Alpha-Synuclein mRNA Translation in H4 Neuroglioblastoma Cells. [Related pubchem assays (depositor defined):AID1813, AID1829]; assay type: functional
[18] = Luminescence Cell-Based Dose HTS Response to Identify Inhibitors of 5'UTR Stem-Loop Driven Prion Protein mRNA Translation in H4-C Neuroglioblastoma Cells. [Related pubchem assays (depositor defined):AID1814, AID1827]; assay type: functional
[19] = DRD fibroblast viability loss – cell-based, non-viral oncogenic, luminescence, dose response (AID 1934); assay type: functional; conditions: Homo sapiens
[20] = Luminescence Cell-Based Dose Response HTS to Identify Inhibitors of Luciferase Translation or Activity in H4-C Neuroglioblastoma Cells. [Related pubchem assays: 1813 (Primary HTS), 1827 (Project Summary)]; assay type: functional
[21] = Luminescence Cell-Based Dose Response HTS to Identify Inhibitors of 5'UTR Stem-Loop Driven Prion Protein mRNA Translation in H4 Neuroglioblastoma Cells. [Related pubchem assays: 1827 (Project Summary), 1813 (Primary HTS)]; assay type: functional
[22] = luciferase reporter signal suppression in cells – H4 neuroglioma cells, luminescence, dose response (AID 1990); assay type: functional, cell-based
[23] = Luminescence Cell-Based Dose Response HTS to Identify Activators of Luciferase Translation or Activity in H4-C Neuroglioblastoma Cells. [Related pubchem assays: 1829 (Project Summary), 1814 (Primary HTS)]; assay type: functional
[24] = Luminescence Cell-Based Dose Response HTS to Identify Activators of 5'UTR Stem-Loop Driven Prion Protein mRNA Translation in H4-C Neuroglioblastoma Cells. [Related pubchem assays: 1829 (Project Summary), 1814 (Primary HTS)]; assay type: functional
BJ [25] = assay: cells; assay type: functional, cell-based; conditions: Homo sapiens
[26] = alpha-synuclein stem-loop luciferase translation blockers – H4 neuroglioma cells, luminescence, confirmation (AID 1988); assay type: functional, cell-based
BJ [27] = assay: BJ-TERT-LT-ST fibroblast viability loss – cell-based, RAS-independent, luminescence, dose response (AID 1935); assay type: functional; conditions: Homo sapiens;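 further: BJ fibroblasts immortalized with TERT plus LT and ST oncogenes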
Trypsin = Trypsin (Sus scrofa, UniProt P00761); assay: trypsin protease activity blockade – biochemical, quenched peptide fluorescence, cherry-pick, selectivity assay for Rce1 protease inhibitor project, dose response (AID 488789)
Sequence of Trypsin (P00761 whole entry): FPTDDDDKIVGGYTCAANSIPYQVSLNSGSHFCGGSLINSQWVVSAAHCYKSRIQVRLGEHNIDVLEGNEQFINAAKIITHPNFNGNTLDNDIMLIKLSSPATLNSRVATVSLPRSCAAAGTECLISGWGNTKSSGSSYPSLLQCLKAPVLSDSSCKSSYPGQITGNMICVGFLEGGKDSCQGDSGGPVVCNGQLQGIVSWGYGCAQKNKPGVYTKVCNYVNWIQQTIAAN

CAAX prenyl protease 2 = molecular target: T5, CAAX prenyl protease 2 (Saccharomyces cerevisiae S288c, UniProt Q03530); assay type: biochemical
T5 sequence (Q03530 whole entry): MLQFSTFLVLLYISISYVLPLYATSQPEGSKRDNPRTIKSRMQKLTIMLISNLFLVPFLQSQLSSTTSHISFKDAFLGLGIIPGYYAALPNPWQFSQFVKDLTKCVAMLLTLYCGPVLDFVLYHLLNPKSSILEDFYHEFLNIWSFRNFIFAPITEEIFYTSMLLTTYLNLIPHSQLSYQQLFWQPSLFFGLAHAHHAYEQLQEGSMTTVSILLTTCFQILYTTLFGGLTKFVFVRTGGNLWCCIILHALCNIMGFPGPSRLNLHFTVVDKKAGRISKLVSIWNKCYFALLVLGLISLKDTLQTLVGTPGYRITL

[28] = molecular target: Type-1 angiotensin II receptor (Homo sapiens, UniProt P30556); assay: agonist activity at AGTR1 – cell-based, uHTS hits, selectivity assay for APJ receptor agonist project, dose response (AID 488865); assay type: functional;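 further: beta-arrestin recruitment to AT1 measured by enzyme fragment complementation luminescence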
Sequence of Type-1 angiotensin II receptor (P30556 whole entry, the tested form may be a part): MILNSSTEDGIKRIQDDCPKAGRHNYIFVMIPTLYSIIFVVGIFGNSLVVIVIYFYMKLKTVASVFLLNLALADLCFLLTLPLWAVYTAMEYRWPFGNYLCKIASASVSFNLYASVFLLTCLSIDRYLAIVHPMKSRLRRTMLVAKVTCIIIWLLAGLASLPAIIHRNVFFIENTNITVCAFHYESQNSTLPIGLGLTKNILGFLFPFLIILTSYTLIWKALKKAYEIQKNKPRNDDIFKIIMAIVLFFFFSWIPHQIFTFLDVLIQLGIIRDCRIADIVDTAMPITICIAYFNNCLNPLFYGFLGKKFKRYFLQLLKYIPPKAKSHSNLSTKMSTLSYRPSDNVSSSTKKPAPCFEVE

[29] = molecular target: Sphingosine 1-phosphate receptor 4 (Homo sapiens, UniProt O95977); assay: Late-stage fluorescence dose response cell-based assay to identify agonists of the Sphingosine 1-Phosphate Receptor 4 (S1P4): purchased compounds EC50. [Related pubchem assays (depositor defined):AID1509, AID1523, AID1563, AID1686, AID1701, AID1801]; assay type: functional
Sequence of Sphingosine 1-phosphate receptor 4 (O95977 whole entry): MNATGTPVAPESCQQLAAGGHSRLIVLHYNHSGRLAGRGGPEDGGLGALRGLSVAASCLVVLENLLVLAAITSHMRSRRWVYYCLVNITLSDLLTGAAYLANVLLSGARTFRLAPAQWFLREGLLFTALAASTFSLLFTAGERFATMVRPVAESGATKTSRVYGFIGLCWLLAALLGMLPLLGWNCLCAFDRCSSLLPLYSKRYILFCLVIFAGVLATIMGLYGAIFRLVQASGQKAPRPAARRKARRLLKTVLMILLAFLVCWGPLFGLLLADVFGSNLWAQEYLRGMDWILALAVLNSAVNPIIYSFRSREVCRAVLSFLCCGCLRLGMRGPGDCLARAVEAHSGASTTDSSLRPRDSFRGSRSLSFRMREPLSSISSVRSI

For `CCOC(=O)C1=C(Cc2ccc(Cl)cc2)C(=O)c2ccccc2C1=O`, the IC50 (HEK293 [1]) was > 20 µM (inactive), the AC50 [2] was 27.2 µM (active) and the CC50 [3] was 19.4 µM (active). For the same molecule, the IC50 (HEK293 [4]) was > 20 µM (inactive), the IC50 [5] was 5.78 µM (active) and the IC50 (Tumor necrosis factor) was 6.24 µM (active). For the same molecule, the IC50 [6] was 43.6 µM (active), the IC50 [7] was 7.01 µM (active) and the EC50 [8] was > 20 µM (inactive). For the same molecule, the IC50 (Hexokinase HKDC1) was 12.2 µM (active), the IC50 (Beta-galactosidase) was > 66.6 µM (inactive) and the EC50 (HEK293 [9]) was 12.2 µM (active). The IC50 (HEK293 [10]) was > 20 µM (inactive), the IC50 [11] was > 100 µM (inactive) and the IC50 (HEK293 [12]) was > 20 µM (inactive). The IC50 [13] was 4.3 µM (active) and the IC50 (HEK293 [14]) was > 20 µM (inactive).

In the case of `COc1cc(OC)c2c(N)c(C#N)c(C(F)(F)C(F)(F)F)nc2c1`, the IC50 (Coagulation factor XII) is reported as > 50 µM (inactive).

In the case of `COc1ccc2c(c1)C(C)=CC(C)(C)N2S(=O)(=O)c1ccc(NC(C)=O)cc1`, the EC50 [15] is reported as 11.6 µM (active), the EC50 (BJ [16]) is reported as 1.89 µM (inconclusive) and the EC50 [17] is reported as 11.6 µM (inconclusive). The EC50 [18] was 1.69 µM (active), the EC50 [19] was 1.06 µM (inconclusive) and the EC50 [20] was 2.91 µM (active). The EC50 [21] was > 60 µM (not active), the EC50 [22] was 14.4 µM (active) and the EC50 [23] was 2.91 µM (inconclusive). The EC50 [24] was 1.69 µM (inconclusive), the EC50 (BJ [25]) was 5.92 µM (active) and the EC50 [26] was 0.514 µM (active). For the same molecule, the EC50 (BJ [27]) was 7.05 µM (inconclusive).

In the case of `CCC(C)NC(=O)CSC1=Nc2ccccc2C2=NC(CC(=O)NCc3ccc(F)cc3)C(=O)N12` (stereo not drawn), the AC50 (Trypsin) is reported as 16.1 µM (active), the AC50 (CAAX prenyl protease 2) is reported as 15.8 µM (active) and the EC50 [28] is reported as > 100 µM (inactive).

In the case of `CCc1ccc(NC(=O)C(C)OC(=O)c2c(C)nn(Cc3ccccc3)c2Cl)cc1` (stereo not drawn), the EC50 [29] is reported as > 50 µM (inactive), the EC50 [21] is reported as > 120 µM (not active) and the EC50 [22] is reported as 16.4 µM (active). The EC50 [26] was > 120 µM (not active).
